“Also recorded” adds a separate entry of the source. Read-outs that look alike come from different tables or passages of the source.
Key:
Format in all cases: cell-based
[1] = test system: MDA-MB-231 breast cancer cells; test: transwell migration assay, MDA-MB-231; conditions: for inhibition at 10 µM: MDA-MB-231, MDA-MB-231, 10 μM, read-out: inhibition of cell migration; for IC50: transwell migration of MDA-MB-231 cells, read-out: IC50 (anti-migration)
Description: (§1) To determine if these analogs have anti-migration and anti-invasion activities in different cancer cell lines, transwell migration assays were performed using MDA-MB-231 breast cancer cells (FIG. 3) and HeLa cells (FIG. 5) for all synthetic analogs. […] Next, clonogenic assays were performed on the breast cancer cells treated with the compounds to rule out any indirect effect on cell migration due to cytotoxicity (FIG. 4). MDA-MB-231 cells were allowed to grow for 14 days in six-well plates in the presence or absence of the synthetic compounds at 10 μM.
To determine the effects of the synthesized mackroketone analogs on cancer cell migration, we performed transwell migration assay on each compound using an invasive and metastatic breast cancer cell line, MDA-MB-231. When cells were seeded at a density of 2.5×10^4 in media free of serum in the upper chamber but containing 5% FBS in the lower chamber, their ability to migrate in the presence and absence of 10 μM analogs were measured by counting the total number of cells in the lower chamber after 24 hrs.

[2] = test system: MDA-MB-231 breast cancer cells; test: clonogenic assay (colony formation), MDA-MB-231; conditions: for activity at 10 µM / inhibition at 10 µM: Homo sapiens, 336 h; for activity at 10 µM / Effect on cell proliferation (colony formation) (% of vehicle control): MDA-MB-231, 10 μM analogs, 14 days; for activity at 10 µM: read-out: Effect on cell proliferation (colony formation) (% of vehicle control); for inhibition at 10 µM / cytotoxicity (in words): MDA-MB-231, 10 μM, two weeks
Description: as §1
To rule out any indirect effect on cell migration due to cytotoxicity, clonogenic assays were performed on the breast cancer cells treated with the compounds. MDA-MB-231 cells were allowed to grow for 14 days in six-well plates in the presence or absence of the synthetic compounds at 10 μM. […] For example, analog 3g blocked both cell migration (81.4%) and colony formation (42.7%). For these analogs cytotoxity may have partially contributed to their overall anti-migration effect. The cell toxicity data for all analogs are listed in Table 1 along with anti-migration data for comparison.

HeLa cells [3] = test: colony formation, HeLa
Excerpt: (§2) Based on the potent effects of synthetic thiazole analogs in blocking migration of MDA-MB-231 cells, ten analogs with high anti-migration activity but low or negligible cytotoxicity were selected to test their anti-migration activity in another metastatic cell line, HeLa. […] On the other hand, the analog 5i was not toxic to 231 cells, but it suppressed the clonogenic capability of HeLa cells by 45%. […] Thus 5k may be further evaluated for its potential as an anti-migration and anti-metastatic agent.

HeLa cells [4] = test: transwell migration, HeLa; conditions: Homo sapiens
Description: as §1, §2

[5] = test system: A549 non small cell lung cancer cells; test: migration assay, A549; conditions: A549, 10 μM
[6] = test system: MDA-MB-231 breast cancer cells; test: matrigel invasion assay, MDA-MB-231; conditions: MDA-MB-231, matrigel
Excerpt: To determine if the synthetic thiazole analogs block invasion of metastatic cancer cells we performed matrigel invasion assays of MDA-MB-231 cells treated with 10 selected analogs.

[7] = test system: f-actin in membrane protrusions of MDA-MB-231 cells; test: f-actin staining of actin-rich membrane protrusions (fluorescent microscopy); conditions: MDA-MB-231, 10 μM, serum stimulated 2 hours; p<0.01
Excerpt: An essential component of migration is protrusion of the cell membrane, which is driven by actin polymerization. […] See Chen, L.; Yang. S.; Jakoncic, J.; Zhang, J. J.; Huang, X. Y. Migrastatin analogues target fascin to block tumour metastasis. Nature 2010; 464:1062-1066. Erratum in: Nature. 2011; 476:240; Hashimoto, Y., D. J. Kim, and J. C. Adams. The roles of fascins in health and disease. J. Pathol. 2011; 224:289-300; and Jayo, A., and M. Parsons. Fascin: a key regulator of cytoskeletal dynamics. Int. J. Biochem. Cell Biol. 2010; 42:1614-1617. […] See Chen, 2010. Thus, we tested the hypothesis that compound 5k interferes with f-actin in membrane protrusions associated with cell motility. MDA-MB-231 cells were serum starved −/+10 μM 5k, then stimulated with serum for 2 hours to induce actin-rich membrane protrusions, which were analyzed by fluorescent microscopy.

[8] = test system: fascin in MDA-MB-231 cells; test: fascin localization by immunofluorescence microscopy
Excerpt: Co-localization of f-actin and fascin appears as white pixels.
To further probe for a possible role of fascin in the reduction of actin-rich membrane protrusions, we determined the localization of fascin by immunofluorescence microscopy.

| SMILES | IC50 ([1]; Homo sapiens) [nM] | activity at 10 µM [2] [%] | other results |
| --- | --- | --- | --- |
| CCCCCCCCCCCC(=O)Nc1nc(-c2ccccc2)cs1 [Compound 3n, N-(4-Phenylthiazol-2-yl)dodecanamide] | 1010 | 71.5 | inhibition at 10 µM ([1]; Homo sapiens): > 50%; inhibition at 10 µM [2]: 30%; cytotoxicity (in words) [2]: no apparent cell toxicity; cytotoxicity (in words) (HeLa cells [3]): no apparent cytotoxicity |
| O=C(Nc1nc(-c2ccccc2)cs1)c1cccs1 [Compound 3a, N-(4-Phenylthiazol-2-yl)thiophene-2-carboxamide] | 2490 | 85.9 | – |
| O=C(Nc1nc(-c2ccccc2)cs1)c1ccc(Br)cc1 [Compound 3d, 4-Bromo-N-(4-phenylthiazol-2-yl)benzamide] | – | 98.6 | – |
| CCCCCC(=O)N(C)c1nc(-c2ccccc2)cs1 [Compound 4h, N-Methyl-N-(4-phenylthiazol-2-yl)hexanamide] | – | 128 | – |
| Cn1c(-c2ccccc2)cs/c1=N/C(=O)c1cccs1 [Compound 5a, N-(3-Methyl-4-phenylthiazol-2(3H)-yliene)thiophene-2-carboxamide] | – | 85 | – |
| Cn1c(-c2ccccc2)cs/c1=N/C(=O)c1ccccc1 [Compound 5j, N-(3-Methyl-4-phenylthiazol-2(3H)-yliene)benzamide] | 189 | 25.2 | inhibition at 10 µM [2]: 75%; cytotoxicity (in words) [2]: strong inhibitor of cell proliferation; cytotoxicity (in words) (HeLa cells [3]): strong inhibitor of cell proliferation |
| Cc1ccc(-c2csc(NC(=O)c3ccccc3)n2)c(C)c1 [Compound 3o, N-(4-(2,4-dimethylphenyl)thiazol-2-yl)benzamide] | 839 | 85 | – |
| CN(C(=O)C1CCCCC1)c1nc(-c2ccccc2)cs1 [Compound 4g, N-Methyl-N-(4-phenylthiazol-2-yl)cyclohexanecarboxamide] | – | 97.5 | – |
| CCCCCC(=O)Nc1nc(-c2ccccc2)cs1 [Compound 3m, N-(4-Phenylthiazol-2-yl)hexanamide] | – | 90.7 | – |
| O=C(Nc1nc(-c2ccccc2)cs1)c1ccco1 [Compound 3b, N-(4-Phenylthiazol-2-yl)furan-2-carboxamide] | – | 98.8 | – |
| O=C(Nc1nc(-c2ccccc2)cs1)c1ccncc1 [Compound 3i, N-(4-Phenylthiazol-2-yl)isonicotinamide] | 2870 | 95.5 | – |
| O=C(Nc1nc(-c2ccccc2)cs1)c1ccc(Cl)cc1 [Compound 3c, 4-Chloro-N-(4-phenylthiazol-2-yl)benzamide] | – | 95 | – |
| COc1ccc(C(=O)N(C)c2nc(-c3ccccc3)cs2)cc1OC [Compound 4c, 3,4-Dimethoxy-N-methyl-N-(4-phenylthiazol-2-yl)benzamide] | – | 97.1 | – |
| COc1ccc(C(=O)N=c2scc(-c3ccccc3)n2C)cc1OC [Compound 5g, 3,4-Dimethoxy-N-(3-methyl-4-phenylthiazol-2(3H)-yliene)benzamide] | – | – | Effect on cell proliferation (colony formation) (% of vehicle control) [2]: 40.9% |
| O=C(Nc1nc(-c2ccccc2)cs1)c1cccnc1 [Compound 3h, N-(4-Phenylthiazol-2-yl)nicotinamide] | – | 103 | – |
| COc1cc(C(=O)Nc2nc(-c3ccccc3)cs2)cc(OC)c1OC [Compound 3e, 3,4,5-Trimethoxy-N-(4-phenylthiazol-2-yl)benzamide] | – | 80.9 | – |
| CCn1c(-c2ccccc2)csc1=NC(=O)c1cccs1 [Compound 5i, N-(3-Ethyl-4-phenylthiazol-2(3H)-yliene)thiophene-2-carboxamide] | – | – | IC50 [1]: 2080 nM; Effect on cell proliferation (colony formation) (% of vehicle control) [2]: 97.7%; cytotoxicity (in words) [2]: not toxic; suppression of clonogenic capability (HeLa cells [3]): 45% |
| O=C(Nc1nc(-c2ccccc2)cs1)c1ccccc1 [Compound 3j, N-(4-Phenylthiazol-2-yl)benzamide] | 1290 | 105 | – |
| CCCCCCCCCCCC(=O)N(C)c1nc(-c2ccccc2)cs1 [Compound 4i, N-Methyl-N-(4-phenylthiazol-2-yl)dodecanamide] | – | 111 | – |
| Cc1ccc(-c2cs/c(=N/C(=O)c3ccccc3)n2C)c(C)c1 [Compound 5k, N-(4-(2,4-Dimethylphenyl)-3-methylthiazol-2(3H)-yliene)-benzamide] | 176 | 121 | cytotoxicity (in words) [2]: no apparent cell toxicity; also recorded: no apparent cytotoxity; inhibition at 10 µM (HeLa cells [4]): > 85%; cytotoxicity (in words) (HeLa cells [3]): no apparent cytotoxity; loss of migratory capacity [5]: ~80%; blocking cell invasion (in words) [6]: most potent compound in blocking cell invasion; reduction in f-actin intensity [7]: 55%; localization of fascin in actin-rich membrane regions (in words) [8]: notably missing from the actin-rich membrane regions |
| COc1ccc(C(=O)Nc2nc(-c3ccccc3)cs2)cc1OC [Compound 3g, 3,4-Dimethoxy-N-(4-phenylthiazol-2-yl)benzamide] | – | 57.3 | inhibition at 10 µM ([1]; Homo sapiens): > 80%; inhibition at 10 µM [2]: 42.7% |
| Cc1ccc(-c2csc(N)n2)c(C)c1 [Compound 2b, 2-Amino-4-(2,4-dimethylphenyl)thiazole] | – | 111 | inhibition at 10 µM ([1]; Homo sapiens): > 50%; cytotoxicity (in words) [2]: no apparent cell toxicity |
| Cn1c(-c2ccccc2)csc1=NC(=O)c1ccc(Cl)cc1 [Compound 5c, 4-Chloro-N-(3-methyl-4-phenylthiazol-2(3H)-ylidene)benzamide] | 1120 | 98.2 | – |
| Cc1ccc(-c2csc(NC(=O)c3cccs3)n2)c(C)c1 [Compound 3f, N-(4-(2,4-Dimethylphenyl)thiazol-2-yl)thiophene-2-carboxamide] | – | 67.5 | – |
| CN(C(=O)C1CCCC1)c1nc(-c2ccccc2)cs1 [Compound 4f, N-Methyl-N-(4-phenylthiazol-2-yl)cyclopentanecarboxamide] | – | 132 | – |
| CN(C(=O)c1ccccc1)c1nc(-c2ccccc2)cs1 [Compound 4e, N-Methyl-N-(4-phenylthiazol-2-yl)benzamide] | 366 | 123 | inhibition at 10 µM ([1]; Homo sapiens): > 50%; cytotoxicity (in words) [2]: no apparent cell toxicity |
| O=C(Nc1nc(-c2ccccc2)cs1)C1CCCCC1 [Compound 3l, N-(4-Phenylthiazol-2-yl)cyclohexanecarboxamide] | – | 103 | – |

— patent US9650369B2, “Anti-migration and anti-invasion thiazole analogs for treatment of cellular proliferative disease” (XAVIER UNIVERSITY OF LOUISIANA, priority 2012, dated 2017)
